Our source for the Ki values is patent publication US10208021B2, “Substituted tetrahydroisoquinoline compounds as factor XIa inhibitors” (BRISTOL-MYERS SQUIBB COMPANY, priority 2011, dated 2019).

pKi: −log10 of the molar value. Counter-ions that a name gives are not always drawn.

In one test the target is purified human Factor XIa (Homo sapiens (Human), UniProt P03951). Put plainly: Factor XIa chromogenic substrate (S-2366) inhibition assay. Conditions: substrate S-2366, Table 1. The class given is biochemical. The protocol: The effectiveness of compounds of the present invention as inhibitors of the coagulation factors XIa, VIIa, IXa, Xa, XIIa, plasma kallikrein or thrombin, can be determined using a relevant purified serine protease, respectively, and an appropriate synthetic substrate. The rate of hydrolysis of the chromogenic or fluorogenic substrate by the relevant serine protease was measured both in the absence and presence of compounds of the present invention. […] A decrease in the rate of absorbance or fluorescence change in the presence of inhibitor is indicative of enzyme inhibition. Such methods are known to one skilled in the art. The results of this assay are expressed as the inhibitory constant, Ki. […] JT Baker or Fisher Scientific). […] Values of Ki were determined by allowing the protease to react with the substrate in the presence of the inhibitor. Reactions were allowed to go for periods of 20-180 minutes (depending on the protease) and the velocities (rate of absorbance or fluorescence change versus time) were measured.
purified human Factor XIa, sequence (P03951 388-625): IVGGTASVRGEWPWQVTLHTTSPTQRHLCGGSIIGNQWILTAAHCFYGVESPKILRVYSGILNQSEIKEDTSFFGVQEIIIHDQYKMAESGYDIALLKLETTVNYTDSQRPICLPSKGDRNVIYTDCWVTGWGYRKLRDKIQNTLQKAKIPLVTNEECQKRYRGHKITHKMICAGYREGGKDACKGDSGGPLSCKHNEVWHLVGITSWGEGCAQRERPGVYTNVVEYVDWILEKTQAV
purified human Factor XIa, sequence (P03951 19-387 partner): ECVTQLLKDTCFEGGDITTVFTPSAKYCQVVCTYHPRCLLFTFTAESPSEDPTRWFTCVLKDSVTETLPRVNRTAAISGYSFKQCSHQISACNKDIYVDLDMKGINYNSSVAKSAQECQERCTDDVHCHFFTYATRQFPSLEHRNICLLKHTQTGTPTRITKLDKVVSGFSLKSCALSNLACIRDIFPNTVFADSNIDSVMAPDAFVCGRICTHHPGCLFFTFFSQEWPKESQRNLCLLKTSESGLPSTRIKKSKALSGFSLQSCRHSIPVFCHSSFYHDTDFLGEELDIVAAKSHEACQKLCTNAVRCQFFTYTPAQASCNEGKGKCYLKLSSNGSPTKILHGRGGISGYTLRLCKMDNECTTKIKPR
On to `N[C@H]1CC[C@H](NC(=O)C2c3cccc(N4CCC(N5CCCC5)CC4)c3CCN2C(=O)/C=C/c2c(-n3cnnn3)ccc(Cl)c2F)CC1` (mixture of isomers) [Example 235], for which the pKi (commonly the Ki on a negative log10 scale, so that one unit is a factor of ten) is 7.13.
`CC(C)NC(=O)C1c2cccc(N3CCC(N4CCCC4)CC3)c2CCN1C(=O)/C=C/c1c(-n2cnnn2)ccc(Cl)c1F` (racemic) [Example 240] had a pKi of 7.33. This pKi is 0.20 log units higher than that of the compound before.
The compound `CC(C)(C)OC(=O)c1ccc(NC(=O)C2c3cccc(N4CCCN(C(=O)OC(C)(C)C)CC4)c3CCN2C(=O)/C=C/c2c(-n3cnnn3)ccc(Cl)c2F)cc1` (racemic) [Example 257] gave a pKi of 5.59.
Compound `CCOC(=O)c1ccc(NC(=O)C2c3cccc(N4CCCCC4=O)c3CCN2C(=O)/C=C/c2c(-n3cnnn3)ccc(Cl)c2F)cc1` (racemic) [compound 43] had a pKi of 7.69.
Take `COC(=O)Nc1ccc(NC(=O)C2c3cccc(N4CCNCC4)c3CCN2C(=O)/C=C/c2c(-n3cnnn3)ccc(Cl)c2F)cc1` (stereo not drawn) [Example 4]: the pKi was 7.99.
`CC(C)(C)OC(=O)c1ccc(NC(=O)C2c3cccc(N4CCNCC4)c3CCN2C(=O)/C=C/c2c(-n3cnnn3)ccc(Cl)c2F)cc1` (stereo not drawn) [Example 7] had a pKi of 7.30.
`O=C(O)c1ccc(NC(=O)C2c3cccc(N4CCNCC4)c3CCN2C(=O)C=Cc2c(-n3cnnn3)ccc(Cl)c2F)cc1` (stereo not drawn) [Example 13] showed a pKi of more than 8.30.

The same test, now with this note: substrate S-2366, activity ranges, Table A.
The compound `CC(C)(C)OC(=O)CCNC(=O)C1c2cccc(N3CCC(N4CCCC4)CC3)c2CCN1C(=O)/C=C/c1c(-n2cnnn2)ccc(Cl)c1F` (racemic) [Example 230] had a pKi of 6.30 to 7.00.
As to `O=C(O)CCNC(=O)C1c2cccc(N3CCC(N4CCCC4)CC3)c2CCN1C(=O)/C=C/c1c(-n2cnnn2)ccc(Cl)c1F` (racemic) [Example 231], the negative-log Ki (pKi) is 6.30 to 7.00.
Consider `COC(=O)[C@H]1CC[C@H](NC(=O)C2c3cccc(N4CCC(N5CCCC5)CC4)c3CCN2C(=O)/C=C/c2c(-n3cnnn3)ccc(Cl)c2F)CC1` (mixture of isomers) [Example 232], for which the pKi was 8.00 to 8.30.
On to `COC(=O)[C@H]1CC[C@@H](NC(=O)C2c3cccc(N4CCC(N5CCCC5)CC4)c3CCN2C(=O)/C=C/c2c(-n3cnnn3)ccc(Cl)c2F)CC1` (mixture of isomers) [Example 233], for which the pKi is 8.00 to 8.30.
In turn, `O=C(N[C@H]1CC[C@H](C(=O)O)CC1)C1c2cccc(N3CCC(N4CCCC4)CC3)c2CCN1C(=O)/C=C/c1c(-n2cnnn2)ccc(Cl)c1F` (mixture of isomers) [Example 234] gave a pKi of 8.00 to 8.30.
Same read-out and setting: with `O=C(N[C@H]1CC[C@H](O)CC1)C1c2cccc(N3CCC(N4CCCC4)CC3)c2CCN1C(=O)/C=C/c1c(-n2cnnn2)ccc(Cl)c1F` (mixture of isomers) [Example 236] the figure was 8.00 to 8.30.
The compound `COC(=O)N[C@H]1CC[C@H](NC(=O)C2c3cccc(N4CCC(N5CCCC5)CC4)c3CCN2C(=O)/C=C/c2c(-n3cnnn3)ccc(Cl)c2F)CC1` (mixture of isomers) [Example 238] showed a pKi of 8.00 to 8.30.
`O=C(NC1CCCCC1)C1c2cccc(N3CCC(N4CCCC4)CC3)c2CCN1C(=O)/C=C/c1c(-n2cnnn2)ccc(Cl)c1F` (racemic) [Example 239] had a pKi of more than 8.30.
Same read-out and setting: with `O=C(O)c1ccc(NC(=O)C2c3cccc(N4CCC5(CC4)OCCO5)c3CCN2C(=O)/C=C/c2c(-n3cnnn3)ccc(Cl)c2F)cc1F` (racemic) [Example 255] the figure was more than 8.30; with `O=C(O)c1ccc(NC(=O)C2c3cccc(N4CCCNCC4)c3CCN2C(=O)/C=C/c2c(-n3cnnn3)ccc(Cl)c2F)cc1` (racemic) [Example 256], more than 8.30; with `O=C(O)c1ccc(NC(=O)C2c3cccc(N4CCCCCC4)c3CCN2C(=O)/C=C/c2c(-n3cnnn3)ccc(Cl)c2F)cc1` (racemic) [Example 258], more than 8.30.
The compound `CNC(=O)N1CCCN(c2cccc3c2CCN(C(=O)/C=C/c2c(-n4cnnn4)ccc(Cl)c2F)C3C(=O)Nc2ccc(C(=O)O)cc2)CC1` (racemic) [Example 259] gave a pKi of more than 8.30.
On the same count and under the same terms, the figure for `CN(C)CCNC(=O)N1CCCN(c2cccc3c2CCN(C(=O)/C=C/c2c(-n4cnnn4)ccc(Cl)c2F)C3C(=O)Nc2ccc(C(=O)O)cc2)CC1` (racemic) [Example 261] is more than 8.30; for `CN1CCCN(c2cccc3c2CCN(C(=O)/C=C/c2c(-n4cnnn4)ccc(Cl)c2F)C3C(=O)Nc2ccc(C(=O)O)cc2)CC1` (racemic) [Example 262] it is more than 8.30; for `CN(C)CCN1CCN(c2cccc3c2CCN(C(=O)/C=C/c2c(-n4cnnn4)ccc(Cl)c2F)C3C(=O)Nc2ccc(C(=O)O)cc2)CCC1=O` (racemic) [Example 263] it is more than 8.30.
The compound `CN1CCN(c2cccc3c2CCN(C(=O)/C=C/c2c(-n4cnnn4)ccc(Cl)c2F)C3C(=O)Nc2ccc(C(=O)O)cc2)CCC1=O` (racemic) [Example 264] gave a pKi of more than 8.30.
On the same count and under the same terms, the figure for `COCCOC1CCN(c2cccc3c2CCN(C(=O)/C=C/c2c(C(C)=O)ccc(Cl)c2F)C3C(=O)Nc2ccc(C(=O)O)cc2)CC1` (racemic) [Example 269] is more than 8.30.
`CC(=O)c1ccc(Cl)c(F)c1/C=C/C(=O)N1CCc2c(cccc2N2CCCCC2=O)C1C(=O)Nc1ccc(C(=O)O)cc1` (racemic) [compound 38]: the pKi was 8.00 to 8.30.
Compound `O=C(Nc1ccc(F)cc1)C1c2cccc(N3CCNCC3)c2CCN1C(=O)/C=C/c1cc(Cl)ccc1-n1cnnn1` (stereo not drawn) [Example 2] had a pKi of 6.30 to 7.00.
As for `O=C(O)c1ccc(NC(=O)C2c3cccc(N4CCNCC4)c3CCN2C(=O)/C=C/c2c(-n3cnnn3)ccc(Cl)c2F)cc1` (stereo not drawn) [Example 3], the pKi is more than 8.30.
For `O=C(Nc1ccc(F)cc1)C1c2cccc(N3CCNCC3)c2CCN1C(=O)/C=C/c1c(-n2cnnn2)ccc(Cl)c1F` (stereo not drawn) [Example 5], the pKi is 8.00 to 8.30.
Turning to `N#Cc1ccc(NC(=O)C2c3cccc(N4CCNCC4)c3CCN2C(=O)/C=C/c2c(-n3cnnn3)ccc(Cl)c2F)cc1` (stereo not drawn) [Example 6], the pKi is 8.00 to 8.30.
In turn, `O=C(Nc1ccccc1)C1c2cccc(N3CCNCC3)c2CCN1C(=O)/C=C/c1c(-n2cnnn2)ccc(Cl)c1F` (stereo not drawn) [Example 8] gave a pKi of 8.00 to 8.30.
`O=C(Nc1ccc2cnn(C(=O)OCc3ccccc3)c2c1)C1c2cccc(N3CCNCC3)c2CCN1C(=O)/C=C/c1c(-n2cnnn2)ccc(Cl)c1F` (stereo not drawn) [Example 9] gave a pKi of 8.00 to 8.30.
`CC(C)(C)OC(=O)N1CCN(c2cccc3c2CCN(C(=O)/C=C/c2c(-n4cnnn4)ccc(Cl)c2F)C3C(=O)Nc2ccc3cnn(C(=O)OC(C)(C)C)c3c2)CC1` (stereo not drawn) [Example 10] showed a pKi of 8.00 to 8.30.
The same measure, in the same setting: with `O=C(Nc1ccc2cn[nH]c2c1)C1c2cccc(N3CCNCC3)c2CCN1C(=O)/C=C/c1c(-n2cnnn2)ccc(Cl)c1F` (stereo not drawn) [Example 11] the figure was more than 8.30.
The same measure, in the same setting: with `O=C(O)c1ccc(NC(=O)C2c3cccc(N4CCNCC4)c3CCN2C(=O)C=Cc2c(-n3cnnn3)ccc(Cl)c2F)cc1` (stereo not drawn) [Example 12] the figure was 8.00 to 8.30.
Turning to `CN1CCN(c2cccc3c2CCN(C(=O)/C=C/c2c(-n4cnnn4)ccc(Cl)c2F)C3C(=O)Nc2ccc(C(=O)O)cc2)CC1` (stereo not drawn) [Example 18], the pKi is more than 8.30.
Still for that read-out and setting: the figure for `CN1CCN(c2cccc3c2CCN(C(=O)/C=C/c2c(-n4cnnn4)ccc(Cl)c2F)C3C(=O)Nc2ccc(C#N)cc2)CC1` (stereo not drawn) [Example 20] is 8.00 to 8.30; for `CCOC(=O)CCNC(=O)N1CCN(c2cccc3c2CCN(C(=O)/C=C/c2cc(Cl)ccc2-n2cnnn2)C3C(=O)Nc2ccc(C(=O)O)cc2)CC1` (stereo not drawn) [Example 21] it is more than 8.30.
`CCOC(=O)CCNC(=O)N1CCN(c2cccc3c2CCN(C(=O)/C=C/c2cc(Cl)ccc2-n2cnnn2)C3C(=O)Nc2ccc(NC(=O)OC)cc2)CC1` (stereo not drawn) [Example 23] showed a pKi of 8.00 to 8.30.
The compound `COC(=O)N1CCN(c2cccc3c2CCN(C(=O)/C=C/c2c(-n4cnnn4)ccc(Cl)c2F)C3C(=O)Nc2ccc(F)cc2)CC1` (stereo not drawn) [Example 25] had a pKi of 8.00 to 8.30.
`COC(=O)N1CCN(c2cccc3c2CCN(C(=O)/C=C/c2c(-n4cnnn4)ccc(Cl)c2F)C3C(=O)Nc2ccc(C#N)cc2)CC1` (stereo not drawn) [Example 26]: the pKi is 8.00 to 8.30.
With `CN1CCN(c2cccc3c2CCN(C(=O)/C=C/c2c(-n4cnnn4)ccc(Cl)c2F)C3C(=O)Nc2ccc3cn[nH]c3c2)CC1` (stereo not drawn) [Example 27], the pKi was more than 8.30.
Compound `NCc1ccc(Cl)cc1/C=C/C(=O)N1CCc2c(cccc2N2CCNCC2)C1C(=O)Nc1ccc(C(=O)O)cc1` (stereo not drawn) [Example 32, (E)-4-(2-(3-(2-(Aminomethyl)-5-chlorophenyl)acryloyl)-5-(piperazin-1-yl)-1,2,3,4-tetrahydroisoquinoline-1-carboxamido)benzoic acid, tri TFA Salt] had a pKi of 6.30 to 7.00.
`CC(C)(C)OC(=O)c1ccc(NC(=O)[C@@H]2c3cccc(N4CCOCC4=O)c3CCN2C(=O)/C=C/c2c(-n3cnnn3)ccc(Cl)c2F)cc1` [Example 50]: the pKi was 6.30 to 7.00.
Still for that read-out and setting: the figure for `CN1CCN(c2cccc3c2CCN(C(=O)/C=C/c2c(-n4cnnn4)ccc(Cl)c2F)C3C(=O)Nc2ccc(C(=O)OC(C)(C)C)cc2)C(=O)C1` (stereo not drawn) [Example 57, (E)-tert-butyl 4-(2-(3-(3-chloro-2-fluoro-6-(1H-tetrazol-1-yl)phenyl)acryloyl)-5-(4-methyl-2-oxopiperazin-1-yl)-1,2,3,4-tetrahydroisoquinoline-1-carboxamido)benzoate] is 8.00 to 8.30; for `O=C(O)c1ccc(NC(=O)C2c3cccc(N4CCNCC4)c3CCN2C(=O)/C=C/c2cc(Cl)c(F)cc2-n2cnnn2)cc1` (stereo not drawn) [Example 65, (E)-4-(2-(3-(5-chloro-4-fluoro-2-(1H-tetrazol-1-yl)phenyl)acryloyl)-5-(piperazin-1-yl)-1,2,3,4-tetrahydroisoquinoline-1-carboxamido)benzoic acid, bis TFA Salt] it is 8.00 to 8.30.
